Laboratory results taken from ChEMBL document CHEMBL5154749 (Eur J Med Chem, 2022).

Assays:
[1] = target: Serine/threonine-protein kinase ATR (Homo sapiens, UniProt Q13535); experiment: Inhibition of human recombinant full length ATR using GST-cMyc-p53 as substrate incubated for 40 mins in presence of ATP by HTRF assay
HT-29 = experiment: Cytotoxicity against ATM proficient human HT-29 cells assessed as reduction in cell viability incubated for 72 hrs by MTT assay; type: functional, cell-based; conditions: HT-29, 72 h

Sequence of Serine/threonine-protein kinase ATR (Q13535 whole entry): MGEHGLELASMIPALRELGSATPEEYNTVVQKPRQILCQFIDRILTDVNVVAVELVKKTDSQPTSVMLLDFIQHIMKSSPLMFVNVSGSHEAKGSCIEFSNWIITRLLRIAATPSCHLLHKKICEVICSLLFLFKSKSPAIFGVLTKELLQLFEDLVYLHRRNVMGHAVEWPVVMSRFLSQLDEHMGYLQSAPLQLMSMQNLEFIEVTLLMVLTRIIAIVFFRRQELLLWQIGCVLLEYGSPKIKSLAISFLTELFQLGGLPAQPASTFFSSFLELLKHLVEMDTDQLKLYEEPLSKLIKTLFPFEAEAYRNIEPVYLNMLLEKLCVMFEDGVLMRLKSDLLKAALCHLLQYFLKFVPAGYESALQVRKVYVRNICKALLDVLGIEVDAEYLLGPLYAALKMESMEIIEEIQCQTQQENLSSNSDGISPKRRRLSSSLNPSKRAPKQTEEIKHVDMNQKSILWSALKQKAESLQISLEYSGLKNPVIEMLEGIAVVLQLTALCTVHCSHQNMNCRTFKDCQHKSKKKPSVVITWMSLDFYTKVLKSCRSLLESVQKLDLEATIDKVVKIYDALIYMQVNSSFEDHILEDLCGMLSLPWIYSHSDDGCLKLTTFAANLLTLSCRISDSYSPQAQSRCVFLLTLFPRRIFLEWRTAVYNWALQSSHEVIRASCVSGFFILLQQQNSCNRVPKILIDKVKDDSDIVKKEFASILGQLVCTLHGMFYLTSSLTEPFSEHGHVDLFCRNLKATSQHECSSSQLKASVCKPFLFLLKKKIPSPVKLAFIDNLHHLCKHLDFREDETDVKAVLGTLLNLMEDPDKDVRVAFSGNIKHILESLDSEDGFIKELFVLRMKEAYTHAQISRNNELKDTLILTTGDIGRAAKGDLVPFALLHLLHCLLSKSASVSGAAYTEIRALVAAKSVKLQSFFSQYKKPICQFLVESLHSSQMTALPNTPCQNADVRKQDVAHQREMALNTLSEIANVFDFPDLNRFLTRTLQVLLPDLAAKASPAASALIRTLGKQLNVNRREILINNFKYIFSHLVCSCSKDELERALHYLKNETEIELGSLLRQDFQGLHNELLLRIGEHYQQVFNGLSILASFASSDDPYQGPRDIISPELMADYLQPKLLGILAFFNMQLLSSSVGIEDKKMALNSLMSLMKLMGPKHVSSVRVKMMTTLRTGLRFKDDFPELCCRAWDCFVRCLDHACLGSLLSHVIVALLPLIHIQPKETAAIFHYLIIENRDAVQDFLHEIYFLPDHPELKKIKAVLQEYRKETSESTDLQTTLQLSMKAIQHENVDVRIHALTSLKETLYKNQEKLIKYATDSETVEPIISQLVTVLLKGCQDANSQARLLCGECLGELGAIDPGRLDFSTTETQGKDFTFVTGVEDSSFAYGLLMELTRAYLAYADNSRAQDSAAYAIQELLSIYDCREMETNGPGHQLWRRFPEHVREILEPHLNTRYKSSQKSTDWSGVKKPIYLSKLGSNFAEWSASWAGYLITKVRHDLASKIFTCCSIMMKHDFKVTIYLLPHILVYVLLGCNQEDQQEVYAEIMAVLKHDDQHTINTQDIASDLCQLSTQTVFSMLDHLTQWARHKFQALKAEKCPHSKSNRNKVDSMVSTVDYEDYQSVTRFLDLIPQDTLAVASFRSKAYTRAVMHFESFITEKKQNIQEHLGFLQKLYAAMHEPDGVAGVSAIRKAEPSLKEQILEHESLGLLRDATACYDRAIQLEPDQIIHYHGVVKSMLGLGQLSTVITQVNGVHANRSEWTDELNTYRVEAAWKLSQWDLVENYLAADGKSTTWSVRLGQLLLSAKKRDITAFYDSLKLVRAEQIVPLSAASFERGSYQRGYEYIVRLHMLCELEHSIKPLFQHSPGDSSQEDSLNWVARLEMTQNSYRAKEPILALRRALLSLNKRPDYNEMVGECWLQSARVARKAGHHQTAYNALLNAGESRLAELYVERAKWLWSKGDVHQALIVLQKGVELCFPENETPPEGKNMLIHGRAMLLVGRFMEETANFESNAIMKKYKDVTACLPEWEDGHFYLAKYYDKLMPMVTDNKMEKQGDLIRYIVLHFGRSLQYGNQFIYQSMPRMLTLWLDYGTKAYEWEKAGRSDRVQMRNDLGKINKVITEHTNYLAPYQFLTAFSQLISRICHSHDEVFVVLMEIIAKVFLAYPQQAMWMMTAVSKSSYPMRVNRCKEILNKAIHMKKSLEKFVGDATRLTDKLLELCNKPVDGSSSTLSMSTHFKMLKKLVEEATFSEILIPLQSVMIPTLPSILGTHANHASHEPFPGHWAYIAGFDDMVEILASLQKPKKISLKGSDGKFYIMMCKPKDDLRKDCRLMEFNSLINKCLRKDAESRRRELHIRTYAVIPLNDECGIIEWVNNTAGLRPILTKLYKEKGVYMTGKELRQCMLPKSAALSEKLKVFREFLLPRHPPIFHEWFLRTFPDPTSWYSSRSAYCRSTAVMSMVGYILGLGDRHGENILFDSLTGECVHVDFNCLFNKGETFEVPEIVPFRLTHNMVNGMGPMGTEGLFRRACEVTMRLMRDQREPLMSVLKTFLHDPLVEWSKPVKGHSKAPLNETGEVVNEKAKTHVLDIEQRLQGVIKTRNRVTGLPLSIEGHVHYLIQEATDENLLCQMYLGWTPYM

SMILES	IC50 [1] [nM]	IC50 (HT-29) [nM]
CC(C)n1nccc1-c1ccc2nc(-c3cccc4[nH]ccc34)nc(N3CCOC[C@H]3C)c2c1	83	
C[C@@H]1COCCN1c1nc(-c2cccc3[nH]ccc23)nc2ccc(-c3ccncc3)cc12	275	
Cn1nccc1-c1ccc2nc(-c3cccc4[nH]ccc34)nc(N3CCC[C@H](N)C3)c2c1	> 10000	
C[C@@H]1COCCN1c1nc(-c2cccc3[nH]ccc23)nc2ccc(-c3cnn(C)c3)cc12	700	
Cc1noc(C)c1-c1ccc2nc(-c3cccc4[nH]ccc34)nc(N3CCOC[C@H]3C)c2c1	32	
Cn1nccc1-c1ccc2nc(-c3cccc4[nH]ccc34)nc(N3CCOCC3)c2c1	89	
Cn1nccc1-c1ccc2nc(-c3cccc4[nH]ccc34)nc(N3CCN(S(C)(=O)=O)CC3)c2c1	> 10000	
C[C@H]1COCCN1c1nc(-c2cccc3[nH]ccc23)nc2ccc(-c3ccnn3C)cc12	700	
Cc1ccc2[nH]ncc2c1-c1nc(N2CCOC[C@H]2C)c2cc(-c3ccnn3C)ccc2n1	> 10000	
C[C@@H]1COCCN1c1nc(-c2cn[nH]c2)nc2ccc(-c3ccnn3C)cc12	> 10000	
C[C@@H]1COCCN1c1nc(-c2c[nH]c3ccccc23)nc2ccc(-c3ccnn3C)cc12	215	
Cn1nccc1-c1ccc2nc(-c3cccc4[nH]ccc34)nc(N3CC4CCC(C3)O4)c2c1	45	
CC(C)n1c(=O)n(C)c2cnc3cc(F)c(-c4ccc(OCCCN5CCCCC5)nc4)cc3c21 [AZD-1390]		> 10000
C[C@@H]1COCCN1c1nc(-c2cnc3[nH]ccc3c2)nc2ccc(-c3ccnn3C)cc12	1770	
Cn1nccc1-c1ccc2nc(-c3cccc4[nH]ccc34)nc(N3CCC[C@@H](N)C3)c2c1	> 10000	
CCOC(c1ccc2nc(-c3cccc4[nH]ccc34)nc(N3CCOC[C@H]3C)c2c1)n1cccn1 (some centres not stated)	901	
C[C@@H]1COCCN1c1nc(-c2cccc3[nH]ccc23)nc2ccc(-c3ccc(N4CCOCC4)nc3)cc12	578	
CCn1nccc1-c1ccc2nc(-c3cccc4[nH]ccc34)nc(N3CCOC[C@H]3C)c2c1	18	
C[C@@H]1CNCCN1c1nc(-c2cccc3[nH]ccc23)nc2ccc(-c3ccnn3C)cc12	> 10000	
C[C@@H]1COCCN1c1nc(-c2cc(C(F)(F)F)cc3[nH]ccc23)nc2ccc(-c3ccnn3C)cc12	> 10000	
C[C@@H]1COCCN1c1nc(-c2c[nH]c3ncc(F)cc23)nc2ccc(-c3ccnn3C)cc12	3550	
Cn1nccc1-c1ccc2nc(-c3cccc4[nH]ccc34)nc(N3CCC(N)C3)c2c1 (configuration not stated)	> 10000	
Cn1nccc1-c1ccc2nc(-c3cccc4[nH]ccc34)nc(N3CC[C@H](N)C3)c2c1	> 10000	
C[C@@H]1COCCN1c1nc(-c2c[nH]c3ncccc23)nc2ccc(-c3ccnn3C)cc12	3320	
COC(=O)C1CN(c2nc(-c3cccc4[nH]ccc34)nc3ccc(-c4ccnn4C)cc23)CCO1 (configuration not stated)	> 10000	
Cn1nccc1-c1ccc2nc(-c3cccc4[nH]ccc34)nc(N3CC4CC3CO4)c2c1 (configuration not stated)	609	

Further lines, with some results ahead:

IC50 [1] [nM]	SMILES	IC50 (HT-29) [nM]
2980	C[C@@H]1COCCN1c1nc(-c2cccc3[nH]ccc23)nc2ccc(-c3ccccc3)cc12	
> 10000	C[C@@H]1CN(c2nc(-c3cccc4[nH]ccc34)nc3ccc(-c4ccnn4C)cc23)C[C@H](C)O1	
435	C[C@@H]1COCCN1c1nc(-c2cccc3[nH]ccc23)nc2ccc(-c3ccnn3C3CCCCO3)cc12 (some centres not stated)	
2790	C[C@@H]1COCCN1c1nc(-c2cccc3[nH]ccc23)nc2ccc(-c3ccsc3)cc12	
> 10000	C[C@@H]1COCCN1c1nc(-c2cccc3[nH]ccc23)nc2ccc(-c3ccc(C#N)nc3)cc12	
194	C[C@@H]1COCCN1c1nc(-c2cccc3[nH]ccc23)nc2ccc(-c3ccc(=O)n(C)c3)cc12	
115	C[C@@H]1COCCN1c1nc(-c2ccnc3[nH]ccc23)nc2ccc(-c3ccnn3C)cc12	
> 10000	C[C@@H]1COCCN1c1nc(-c2cnn(C3CCNCC3)c2)nc2ccc(-c3ccnn3C)cc12	
33	C[C@@H]1COCCN1c1nc(-c2cccc3[nH]ccc23)nc2ccc(-c3cncn3C)cc12	
289	C[C@@H]1COCCN1c1nc(-c2cccc3[nH]ccc23)nc2ccc(-c3cccn3C)cc12	
25	Cn1nccc1-c1ccc2nc(-c3cccc4[nH]ccc34)nc(N3C4CCC3COC4)c2c1	
183	C[C@@H]1COCCN1c1nc(-c2cccc3[nH]ccc23)nc2ccc(-c3cccnc3)cc12	
2370	C[C@@H]1COCCN1c1nc(-c2cccc3[nH]ccc23)nc2ccc(-c3ccoc3)cc12	
96	C[C@@H]1COCCN1c1nc(-c2cc(F)cc3[nH]ccc23)nc2ccc(-c3ccnn3C)cc12	
> 10000	C[C@@H]1COCCN1c1nc(-c2cc[nH]n2)nc2ccc(-c3ccnn3C)cc12	
2440	Cc1ncc(-c2ccc3nc(-c4cccc5[nH]ccc45)nc(N4CCOC[C@H]4C)c3c2)s1	
